Data on 14 compounds can be found in PubChem BioAssay (NCI).

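Method: 48-hour compound exposure of cells in 96-well plates, five concentrations, linear interpolation of endpoints. TGI marks complete inhibition of growth.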

For the first assay, the system named is MALME-3M melanoma. As to the kind of experiment: inhibition of tumour cell growth, NCI panel, 48 h.
As for `N#Cc1sc2c(c1OC(=O)c1ccccc1)c(=O)n(-c1ccccc1)c(=S)n2-c1ccccc1`, the TGI was determined as 50 µM.

`O=C(NC1=C(Cl)C(=O)c2ccccc2C1=O)c1ccc(F)cc1` returned a TGI of 3.73 µM.

The next assay has as its system SK-MEL-28 melanoma. In words: inhibition of tumour cell growth, NCI panel, 48 h.
`CC(C)(C)OC(=O)NC(Cc1ccccc1)OCc1ccccc1` (stereo unspecified): the TGI stood at 33.1 µM.

Compound `CN1c2ccccc2C(=O)NC12CCN(CCCC(=O)c1ccc(F)cc1)CC2` had a TGI of over 100 µM.

In the case of `NC(N)=NCC[C@H](NC(=O)OCCCCCn1ccc(=O)[nH]c1=O)C(=O)O`, the TGI is over 100 µM.

`O=C(c1ccccc1)c1ccc2nc(-c3c(Cl)c(Cl)c(Cl)c(Cl)c3C(=O)N/N=C/c3ccc(Cl)cc3)[nH]c2c1` gave a TGI of over 100 µM.

For `CCc1nn(CN2CCOCC2)c(=S)n1/N=C/c1ccc(-c2ccc(Cl)cc2)o1`, the TGI is over 100 µM.

Regarding `COc1cc(C2SCC(=O)N2c2cccc(Cl)c2)cc(OC)c1OC` (stereo unspecified), the TGI is over 100 µM.

For the compound `CCOC(=O)c1c(C)nc2c1c(CN(C)C)c(O)c1[nH]c(C)c(C)nc12`, the TGI worked out at 76.9 µM.

For `CC(=O)C1C(=O)C(=O)N(c2cccc([N+](=O)[O-])c2)C1=O` (stereo unspecified), the TGI is over 100 µM.

Regarding `CCN(CC)CC1CCCCN1CC(=O)N1c2ccccc2C(=O)Nc2cccnc21` (stereo unspecified), the TGI was over 100 µM.

`C=CC[C@@H](N)C(=O)N(C)[C@@H](C)[C@@H](O)c1ccccc1` yielded a TGI of over 100 µM.

As to `N#Cc1sc2c(c1OC(=O)c1ccccc1)c(=O)n(-c1ccccc1)c(=S)n2-c1ccccc1`, the TGI came out at 72.4 µM.

`O=C(NC1=C(Cl)C(=O)c2ccccc2C1=O)c1ccc(F)cc1` registered a TGI of 18.4 µM.

The next assay concerns SK-MEL-2 melanoma. As to the kind of experiment: inhibition of tumour cell growth, NCI panel, 48 h.
`COC(=O)[C@@H]1[C@H](OC(C)=O)CCC2[C@@]3(C[C@@H](c4ccoc4)O[C@@H]3OC)[C@H](C)CC[C@]21C(=O)OC` (stereo partly specified) had a TGI of over 25 µM.

Regarding `Cc1n[nH]c(=O)n1N1C(=O)CCCC1=O`, the TGI is over 100 µM.

For the compound `CC(C)(C)OC(=O)NC(Cc1ccccc1)OCc1ccccc1` (stereo unspecified), the TGI worked out at 74.7 µM.

As to `CN1c2ccccc2C(=O)NC12CCN(CCCC(=O)c1ccc(F)cc1)CC2`, the TGI is over 100 µM.

`NC(N)=NCC[C@H](NC(=O)OCCCCCn1ccc(=O)[nH]c1=O)C(=O)O` registered a TGI of over 100 µM.

Compound `O=C(c1ccccc1)c1ccc2nc(-c3c(Cl)c(Cl)c(Cl)c(Cl)c3C(=O)N/N=C/c3ccc(Cl)cc3)[nH]c2c1` gave a TGI of 72.4 µM.

Turning to `CCc1nn(CN2CCOCC2)c(=S)n1/N=C/c1ccc(-c2ccc(Cl)cc2)o1`, the TGI was over 100 µM.

As to `COc1cc(C2SCC(=O)N2c2cccc(Cl)c2)cc(OC)c1OC` (stereo unspecified), the TGI is over 100 µM.

Compound `CCOC(=O)c1c(C)nc2c1c(CN(C)C)c(O)c1[nH]c(C)c(C)nc12` showed a TGI of 43.8 µM.

`CC(=O)C1C(=O)C(=O)N(c2cccc([N+](=O)[O-])c2)C1=O` (stereo unspecified) displayed a TGI of over 100 µM.

`CCN(CC)CC1CCCCN1CC(=O)N1c2ccccc2C(=O)Nc2cccnc21` (stereo unspecified) yielded a TGI of over 100 µM.

`C=CC[C@@H](N)C(=O)N(C)[C@@H](C)[C@@H](O)c1ccccc1` showed a TGI of over 100 µM.

`N#Cc1sc2c(c1OC(=O)c1ccccc1)c(=O)n(-c1ccccc1)c(=S)n2-c1ccccc1` yielded a TGI of 80.3 µM.

The test system of a further assay is DU-145 prostate. In words: inhibition of tumour cell growth, NCI panel, 48 h.
As for `COC(=O)[C@@H]1[C@H](OC(C)=O)CCC2[C@@]3(C[C@@H](c4ccoc4)O[C@@H]3OC)[C@H](C)CC[C@]21C(=O)OC` (stereo partly specified), the TGI is over 25 µM.

Regarding `Cc1n[nH]c(=O)n1N1C(=O)CCCC1=O`, the TGI is over 100 µM.

Compound `CC(C)(C)OC(=O)NC(Cc1ccccc1)OCc1ccccc1` (stereo unspecified) registered a TGI of 39.6 µM.

With `CN1c2ccccc2C(=O)NC12CCN(CCCC(=O)c1ccc(F)cc1)CC2`, the TGI was over 100 µM.

As for `NC(N)=NCC[C@H](NC(=O)OCCCCCn1ccc(=O)[nH]c1=O)C(=O)O`, the TGI is over 100 µM.

Consider `O=C(c1ccccc1)c1ccc2nc(-c3c(Cl)c(Cl)c(Cl)c(Cl)c3C(=O)N/N=C/c3ccc(Cl)cc3)[nH]c2c1`, for which the TGI was over 100 µM.

For `CCc1nn(CN2CCOCC2)c(=S)n1/N=C/c1ccc(-c2ccc(Cl)cc2)o1`, the TGI was over 100 µM.

In turn, `COc1cc(C2SCC(=O)N2c2cccc(Cl)c2)cc(OC)c1OC` (stereo unspecified) returned a TGI of over 100 µM.

As for `CCOC(=O)c1c(C)nc2c1c(CN(C)C)c(O)c1[nH]c(C)c(C)nc12`, the TGI was over 100 µM.

`CC(=O)C1C(=O)C(=O)N(c2cccc([N+](=O)[O-])c2)C1=O` (stereo unspecified): the TGI was over 100 µM.

Compound `CCN(CC)CC1CCCCN1CC(=O)N1c2ccccc2C(=O)Nc2cccnc21` (stereo unspecified) came in with a TGI of over 100 µM.

For the compound `C=CC[C@@H](N)C(=O)N(C)[C@@H](C)[C@@H](O)c1ccccc1`, the TGI was over 100 µM.

For the compound `N#Cc1sc2c(c1OC(=O)c1ccccc1)c(=O)n(-c1ccccc1)c(=S)n2-c1ccccc1`, the TGI was over 100 µM.

Take `O=C(NC1=C(Cl)C(=O)c2ccccc2C1=O)c1ccc(F)cc1`: the TGI worked out at 18.3 µM.

A further assay has as its system TK-10 renal. In words: inhibition of tumour cell growth, NCI panel, 48 h.
Compound `COC(=O)[C@@H]1[C@H](OC(C)=O)CCC2[C@@]3(C[C@@H](c4ccoc4)O[C@@H]3OC)[C@H](C)CC[C@]21C(=O)OC` (stereo partly specified) gave a TGI of over 25 µM.

The compound `Cc1n[nH]c(=O)n1N1C(=O)CCCC1=O` returned a TGI of over 100 µM.

`CC(C)(C)OC(=O)NC(Cc1ccccc1)OCc1ccccc1` (stereo unspecified) had a TGI of 41.2 µM.

In the case of `NC(N)=NCC[C@H](NC(=O)OCCCCCn1ccc(=O)[nH]c1=O)C(=O)O`, the TGI was over 100 µM.

`O=C(c1ccccc1)c1ccc2nc(-c3c(Cl)c(Cl)c(Cl)c(Cl)c3C(=O)N/N=C/c3ccc(Cl)cc3)[nH]c2c1` came in with a TGI of over 100 µM.

The compound `CCc1nn(CN2CCOCC2)c(=S)n1/N=C/c1ccc(-c2ccc(Cl)cc2)o1` came in with a TGI of over 100 µM.

The compound `COc1cc(C2SCC(=O)N2c2cccc(Cl)c2)cc(OC)c1OC` (stereo unspecified) displayed a TGI of over 100 µM.

On to `CCOC(=O)c1c(C)nc2c1c(CN(C)C)c(O)c1[nH]c(C)c(C)nc12`, for which the TGI amounted to 72.8 µM.

`CC(=O)C1C(=O)C(=O)N(c2cccc([N+](=O)[O-])c2)C1=O` (stereo unspecified) returned a TGI of over 100 µM.

On to `CCN(CC)CC1CCCCN1CC(=O)N1c2ccccc2C(=O)Nc2cccnc21` (stereo unspecified), for which the TGI is over 100 µM.
